Measurements taken from patent US9919998B2, “Antibacterial agents: Nα-aroyl-N-aryl-phenylalaninamides” (priority 2014, dated 2018).
Values after ≈ are worked out from the molar mass of the structure shown.

Columns and labels:
Type in all cases: cell-based
[1] = system: Mycobacterium tuberculosis H37Rv; test: Microplate Alamar Blue assay (MABA) MIC, M. tuberculosis; settings: read-out: MIC Mycobacterium tuberculosis H37Rv
From the text: (§1) Minimal inhibitory concentrations (MICs) in Mycobacterium tuberculosis H37Rv and Mycobacterium avium ATCC 25291 were quantified using microplate Alamar Blue assays as described (MABA; [Collins, L. & Franzblau, S. (1997) Microplate Alamar Blue assay versus BACTEC 460 system for high-throughput screening of compounds against Mycobacterium tuberculosis and Mycobacterium avium. Antimicrob. Agents Chemother. 41, 1004-1009]).

[2] = system: Mycobacterium avium ATCC 25291; test: Microplate Alamar Blue assay (MABA) MIC, M. avium; settings: ATCC25291, M. avium ATCC 25291
From the text: as §1

[3] = system: Mycobacterium smegmatis ATCC 19420; test: Broth microdilution MIC, M. smegmatis; settings: Mycolicibacterium smegmatis, ATCC19420, M. smegmatis ATCC 19420; read-out: MIC Mycobacterium smegmatis ATCC 19420
From the text: MICs in Mycobacterium smegmatis ATCC 19420 and Mycobacterium smegmatis ATCC 19420 derivatives were quantified using broth microdilution assays as described [Clinical and Laboratory Standards Institute (CLSI/NCCLS) (2009) Methods for Dilution Antimicrobial Susceptibility Tests for Bacteria That Grow Aerobically; Approved Standard, Eighth Edition. CLIS Document M07-A8 (CLIS, Wayne Pa.)].

[4] = system: Vero E6 ATCC CRL1586 cells; test: Mammalian-cell cytotoxicity, minimal cytotoxic concentration (CellTiter96)
Protocol: Minimal cytotoxic concentrations (MCCs) against mammalian cells in culture were determined using Vero E6 ATCC CRL1586 cells and the CellTiter96 assay kit (Promega, Inc.). […]

Row | Structure (SMILES) | MIC [1] [µg/mL] | MIC [2] [µg/mL] | MIC [3] [µg/mL] | MCC mammalian cells Vero E6 ATCC CRL1586 [4] [µg/mL]
1 | Cc1cccc(NC(=O)C(Cc2ccccc2)NC(=O)c2ccccc2)c1C (stereo not drawn) [I-105] | 3.12 (≈ 8.39 µM) | 12.5 (≈ 33.6 µM) | 0.39 (≈ 1.05 µM) | 21
2 | CCc1cccc(NC(=O)C(Cc2ccccc2)NC(=O)c2ccccc2)c1C (stereo not drawn) [I-116] | 6.25 (≈ 16.2 µM) | 6.25 (≈ 16.2 µM) | 0.78 (≈ 2.02 µM) | 90
3 | CCc1ccccc1C(=O)NC(Cc1ccccc1)C(=O)Nc1ccccc1C (stereo not drawn) [I-123] | > 50 | > 50 | 1.56 (≈ 4.04 µM) | >100
4 | CCCc1ccccc1NC(=O)C(Cc1ccccc1)NC(=O)c1ccccc1 (stereo not drawn) [I-126] | > 50 | > 50 | 1.56 (≈ 4.04 µM) | 10
5 | CCCc1cccc(NC(=O)C(Cc2ccccc2)NC(=O)c2ccccc2)c1C (stereo not drawn) [I-127] | > 50 | > 50 | 3.12 (≈ 7.8 µM) | 100
6 | Cc1c(NC(=O)C(Cc2ccccc2)NC(=O)c2ccccc2)cccc1C(C)C (stereo not drawn) [I-138] | 6.25 (≈ 15.6 µM) | > 50 | 0.78 (≈ 1.95 µM) | >100
7 | O=C(NC(Cc1ccccc1)C(=O)Nc1ccccc1C(F)F)c1ccccc1 (stereo not drawn) [I-148] | 6.25 (≈ 15.8 µM) | > 50 | 3.12 (≈ 7.92 µM) | 100
8 | Cc1c(NC(=O)C(Cc2ccccc2)NC(=O)c2ccccc2)cccc1C(F)F (stereo not drawn) [I-149] | > 50 | > 50 | 0.39 (≈ 0.955 µM) | 20
9 | O=C(NC(Cc1ccccc1)C(=O)Nc1ccccc1N1CCCC1)c1ccccc1 (stereo not drawn) [I-192] | 9.4 (≈ 22.7 µM) | 25 (≈ 60.5 µM) | 0.78 (≈ 1.89 µM) | >100
10 | Cc1c(NC(=O)C(Cc2ccccc2)NC(=O)c2ccccc2)cccc1N1CCCC1 (stereo not drawn) [I-193] | 6.25 (≈ 14.6 µM) | 50 (≈ 117 µM) | 6.25 (≈ 14.6 µM) | >100
11 | O=C(NC(Cc1ccccc1)C(=O)Nc1ccccc1-n1cncn1)c1ccccc1 (stereo not drawn) [I-203] | 12.5 (≈ 30.4 µM) | 50 (≈ 122 µM) | 0.78 (≈ 1.9 µM) | >100
12 | O=C(NC(Cc1ccccc1)C(=O)Nc1cccc2[nH]ccc12)c1ccccc1 (stereo not drawn) [II-27] | 12.5 (≈ 32.6 µM) | > 50 | 0.39 (≈ 1.02 µM) | 41
13 | O=C(NC(Cc1ccccc1)C(=O)Nc1cccc2sccc12)c1ccccc1 (stereo not drawn) [II-46] | 3.12 (≈ 7.8 µM) | 3.12 (≈ 7.8 µM) | 0.195 (≈ 0.487 µM) | >100
14 | O=C(NC(Cc1ccccc1)C(=O)Nc1cccc2ccsc12)c1ccccc1 (stereo not drawn) [II-47] | 1.56 (≈ 3.9 µM) | 3.12 (≈ 7.8 µM) | 1.56 (≈ 3.9 µM) | >100
15 | O=C(NC(Cc1ccccc1)C(=O)Nc1cccc2ccoc12)c1ccccc1 (stereo not drawn) [II-65] | > 50 | > 50 | 0.39 (≈ 1.01 µM) | 78
16 | O=C(NC(Cc1ccc(O)cc1)C(=O)Nc1cccc2c1CCCC2)c1ccccc1 (stereo not drawn) [IX-6, N-(3-(4-hydroxyphenyl)-1-oxo-1-((5,6,7,8-tetrahydronaphthalen-1-yl)amino)propan-2-yl)benzamide] | 6.25 (≈ 15.1 µM) | 6.25 (≈ 15.1 µM) | 1.56 (≈ 3.76 µM) | 21
17 | O=C(NC(Cc1ccccc1)C(=O)Nc1cccc2ccncc12)c1ccccc1 (stereo not drawn) [IX-15, N-(1-(isoquinolin-8-ylamino)-1-oxo-3-phenylpropan-2-yl)benzamide] | 6.25 (≈ 15.8 µM) | 25 (≈ 63.2 µM) | 0.78 (≈ 1.97 µM) | 85

Row | Structure (SMILES) | MIC [1] [µg/mL] | MIC [2] [µg/mL] | MIC [3] [µg/mL] | MCC mammalian cells Vero E6 ATCC CRL1586 [4] [µg/mL]
18 | O=C(NC(Cc1ccc(O)cc1)C(=O)Nc1cccc2ccncc12)c1ccccc1 (stereo not drawn) [IX-18, N-(3-(4-hydroxyphenyl)-1-(isoquinolin-8-ylamino)-1-oxopropan-2-yl)benzamide] | 6.25 (≈ 15.2 µM) | 12.5 (≈ 30.4 µM) | 0.39 (≈ 0.948 µM) | >100
19 | O=C(NC(Cc1ccc(O)cc1)C(=O)Nc1cccc2c1OCCO2)c1ccccc1 (stereo not drawn) [IX-21, N-(1-((2,3-dihydrobenzo[b][1,4]dioxin-5-yl)amino)-3-(4-hydroxyphenyl)-1-oxopropan-2-yl)benzamide] | 6.25 (≈ 14.9 µM) | 6.25 (≈ 14.9 µM) | 0.78 (≈ 1.86 µM) | >100
20 | COc1ccccc1NC(=O)C(Cc1ccc(O)cc1)NC(=O)c1ccccc1 (stereo not drawn) [IX-26, N-(3-(4-hydroxyphenyl)-1-((2-methoxyphenyl)amino)-1-oxopropan-2-yl)benzamide] | 25 (≈ 64 µM) | 50 (≈ 128 µM) | 1.25 (≈ 3.2 µM) | >100
21 | Cc1ccccc1NC(=O)C(Cc1ccc(O)cc1)NC(=O)c1cccs1 (stereo not drawn) [IX-28, N-(3-(4-hydroxyphenyl)-1-oxo-1-(o-tolylamino)propan-2-yl)thiophene-2-carboxamide] | 12.5 (≈ 32.9 µM) | 12.5 (≈ 32.9 µM) | 0.39 (≈ 1.03 µM) | 80
22 | COc1ccccc1NC(=O)C(Cc1ccccc1)NC(=O)c1cccs1 (stereo not drawn) [IX-29, N-(1-((2-methoxyphenyl)amino)-1-oxo-3-phenylpropan-2-yl)thiophene-2-carboxamide] | 3.12 (≈ 8.21 µM) | 6.25 (≈ 16.4 µM) | 0.195 (≈ 0.513 µM) | >100
23 | O=C(NC(Cc1ccccc1)C(=O)Nc1cccc2cnccc12)c1cccs1 (stereo not drawn) [IX-30, N-(1-(isoquinolin-5-ylamino)-1-oxo-3-phenylpropan-2-yl)thiophene-2-carboxamide] | 3.12 (≈ 7.78 µM) | 6.25 (≈ 15.6 µM) | 0.195 (≈ 0.486 µM) | 37
24 | O=C(NC(Cc1ccccc1)C(=O)Nc1cccc2c1OCCO2)c1cccs1 (stereo not drawn) [IX-31, N-(1-((2,3-dihydrobenzo[b][1,4]dioxin-5-yl)amino)-1-oxo-3-phenylpropan-2-yl)thiophene-2-carboxamide] | 3.12 (≈ 7.65 µM) | 3.12 (≈ 7.65 µM) | 0.195 (≈ 0.477 µM) | 30
25 | COc1ccccc1NC(=O)C(Cc1ccc(O)cc1)NC(=O)c1cccs1 (stereo not drawn) [IX-32, N-(3-(4-hydroxyphenyl)-1-((2-methoxyphenyl)amino)-1-oxopropan-2-yl)thiophene-2-carboxamide] | 12.5 (≈ 31.5 µM) | 6.25 (≈ 15.8 µM) | 0.195 (≈ 0.492 µM) | 100
26 | O=C(NC(Cc1ccc(O)cc1)C(=O)Nc1cccc2cnccc12)c1cccs1 (stereo not drawn) [IX-33, N-(3-(4-hydroxyphenyl)-1-(isoquinolin-5-ylamino)-1-oxopropan-2-yl)thiophene-2-carboxamide] | 12.5 (≈ 29.9 µM) | 6.25 (≈ 15 µM) | 0.195 (≈ 0.467 µM) | 80
27 | O=C(NC(Cc1ccc(O)cc1)C(=O)Nc1cccc2c1OCCO2)c1cccs1 (stereo not drawn) [IX-34, N-(1-((2,3-dihydrobenzo[b][1,4]dioxin-5-yl)amino)-3-(4-hydroxyphenyl)-1-oxopropan-2-yl)thiophene-2-carboxamide] | 6.25 (≈ 14.7 µM) | 3.12 (≈ 7.36 µM) | 0.39 (≈ 0.919 µM) | 85
28 | COc1ncccc1NC(=O)C(Cc1ccccc1)NC(=O)c1ccccc1 (stereo not drawn) [IX-38, N-(1-((2-methoxypyridin-3-yl)amino)-1-oxo-3-phenylpropan-2-yl)benzamide] | 6.25 (≈ 16.6 µM) | 6.25 (≈ 16.6 µM) | 0.39 (≈ 1.04 µM) | 38
29 | O=C(NC(Cc1ccccc1)C(=O)Nc1cccc2cn[nH]c12)c1ccccc1 (stereo not drawn) [IX-39, N-(1-((1H-indazol-7-yl)amino)-1-oxo-3-phenylpropan-2-yl)benzamide] | > 50 | > 50 | 1.56 (≈ 4.06 µM) | 20
30 | O=C(NC(Cc1ccc(O)cc1)C(=O)Nc1cccc2cc[nH]c12)c1ccccc1 (stereo not drawn) [IX-40, N-(1-((1H-indol-7-yl)amino)-3-(4-hydroxyphenyl)-1-oxopropan-2-yl)benzamide] | 12.5 (≈ 31.3 µM) | 12.5 (≈ 31.3 µM) | 0.39 (≈ 0.976 µM) | 78
31 | O=C(NC(Cc1ccccc1)C(=O)Nc1cccc2cc[nH]c12)c1cccs1 (stereo not drawn) [IX-41, N-(1-((1H-indol-7-yl)amino)-1-oxo-3-phenylpropan-2-yl)thiophene-2-carboxamide] | 12.5 (≈ 32.1 µM) | 12.5 (≈ 32.1 µM) | 0.39 (≈ 1 µM) | 48
32 | COc1ccccc1NC(=O)C(Cc1ccccc1)NC(=O)c1cccc2[nH]ccc12 (stereo not drawn) [IX-43, N-(1-((2-methoxyphenyl)amino)-1-oxo-3-phenylpropan-2-yl)-1H-indole-4-carboxamide] | 6.25 (≈ 15.1 µM) | 12.5 (≈ 30.2 µM) | 0.39 (≈ 0.943 µM) | 59
33 | O=C(NC(Cc1ccccc1)C(=O)Nc1cccc2cnccc12)c1cccc2[nH]ccc12 (stereo not drawn) [IX-44, N-(1-(isoquinolin-5-ylamino)-1-oxo-3-phenylpropan-2-yl)-1H-indole-4-carboxamide] | 1.56 (≈ 3.59 µM) | 3.12 (≈ 7.19 µM) | 0.195 (≈ 0.449 µM) | 70
